Data on four compounds can be found in ChEMBL document CHEMBL1201862, “PubChem BioAssay data set” (2004).

Test systems include OVCAR-8; SK-MEL-5; SR; CAKI-1; RXF 393; IGROV-1; T47D; SK-MEL-28; MDA-MB-435; COLO 205; SK-MEL-2; RPMI-8226; 786-0; MDA-MB-231; HT-29; K562; LOX IMVI; PC-3; UO-31.
Experiment in all cases: inhibition of tumour cell growth, NCI panel, 48 h

Structures are written as SMILES.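 In this assay, cells in 96-well plates receive the compound at five concentrations for 48 hours. Endpoints are linearly interpolated between the surrounding concentrations. Abbreviation: GI50, concentration required for 50% inhibition of growth.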 Active and inactive are the calls of the source. Cut-off read from the data, not from the text of the source: active = GI50 up to about 1.1 µM and inactive = higher. Where only a bound is given, the exact number is not on record here.

On to `Cc1c2cnccc2c(C)c2c1[nH]c1ccc(O)cc12`, for which the GI50 in the assay on OVCAR-8 was 0.607 µM (active); in the assay with SK-MEL-5, > 10 µM (inactive); in the assay with SR, 0.31 µM (active); in the assay with CAKI-1 it was 1.43 µM (inactive); with RXF 393 it was 1.53 µM (inactive); with IGROV-1, 1.85 µM (inactive). In addition, the GI50 in the assay on T47D was 5.92 µM (inactive); in the assay on SK-MEL-28, 3.01 µM (inactive); in the assay with MDA-MB-435, 1.78 µM (inactive); in the assay with COLO 205, 2.68 µM (inactive); in the assay on SK-MEL-2 it was 6.25 µM (inactive); with RPMI-8226, 1.59 µM (inactive). Besides, the GI50 in the assay with 786-0 is 0.241 µM (active); in the assay with MDA-MB-231, 1.57 µM (inactive); with HT-29, 1.51 µM (inactive); with K562 it was 3.17 µM (inactive); with LOX IMVI, 0.342 µM (active); with PC-3 it was 2.15 µM (inactive).
In the case of `NC(CCCCNc1ccn(C2OC(CO)C(O)C2O)c(=O)n1)C(=O)O` (centres undefined), the GI50 is 73.1 µM (inactive) with OVCAR-8; > 100 µM (inactive) with SK-MEL-5; > 100 µM (inactive) in the assay on SR; > 100 µM (inactive) with CAKI-1; > 100 µM (inactive) with RXF 393; 65.8 µM (inactive) with IGROV-1. Also, the GI50 with T47D is > 100 µM (inactive); with SK-MEL-28 it was > 100 µM (inactive); with MDA-MB-435, 88.1 µM (inactive); in the assay on COLO 205, > 100 µM (inactive); with SK-MEL-2, 77.8 µM (inactive); with RPMI-8226 it was > 100 µM (inactive). The GI50 in the assay with UO-31, in the assay on 786-0, in the assay with MDA-MB-231, with K562, in the assay with LOX IMVI and in the assay on PC-3 was > 100 µM (inactive) throughout.
For the compound `Cc1csc(-c2cn(C)c3c2C(=O)C(=N)C=C3O)n1`, the GI50 in the assay with OVCAR-8 is 6.34 µM (inactive); in the assay on SK-MEL-5 it was 1.53 µM (inactive); in the assay with SR, 2.52 µM (inactive); in the assay on CAKI-1, 3.68 µM (inactive); in the assay on RXF 393, 54.1 µM (inactive); in the assay on IGROV-1, 2.31 µM (inactive). Also, the GI50 with T47D was 17.7 µM (inactive); in the assay on SK-MEL-28, 20.3 µM (inactive); with MDA-MB-435, 4.28 µM (inactive); with COLO 205 it was 4.53 µM (inactive); in the assay on SK-MEL-2, 19.8 µM (inactive); with RPMI-8226, 2.83 µM (inactive). Also, the GI50 in the assay on UO-31 is 5.9 µM (inactive); with 786-0, 32.4 µM (inactive); in the assay with MDA-MB-231, 51.6 µM (inactive); in the assay with HT-29 it was 8.69 µM (inactive); with K562 it was 6.28 µM (inactive); in the assay with LOX IMVI, 3.52 µM (inactive). Besides, in the assay with PC-3, the GI50 is 7.01 µM (inactive).
As to `Cc1ccc(/C=C2\CN(C)CC3=C2OC(N)=C(C#N)C3c2ccc(C)cc2)cc1` (centres undefined), the GI50 with OVCAR-8 was 13.4 µM (inactive); in the assay on SK-MEL-5, 25.9 µM (inactive); in the assay on SR, 19.9 µM (inactive); with CAKI-1 it was 19.5 µM (inactive); in the assay on RXF 393, 11.3 µM (inactive); in the assay with IGROV-1, 7.5 µM (inactive). For the same compound, the GI50 in the assay on T47D was 7.11 µM (inactive); in the assay with SK-MEL-28 it was 27.8 µM (inactive); with MDA-MB-435 it was 15.8 µM (inactive); in the assay on COLO 205, 17 µM (inactive); in the assay with SK-MEL-2, 39.9 µM (inactive); in the assay on RPMI-8226 it was 9.98 µM (inactive). Besides, the GI50 with UO-31 is 17.6 µM (inactive); in the assay on 786-0 it was 15.6 µM (inactive); in the assay on MDA-MB-231 it was > 38.5 µM (inactive); in the assay with HT-29, 16.1 µM (inactive); in the assay with K562, 11.2 µM (inactive); in the assay with LOX IMVI, 13.5 µM (inactive). Also, the GI50 in the assay with PC-3 was 15.7 µM (inactive).
